One may read the Kd as the constant that tells how readily two partners part at equilibrium. As usually defined, the IC50 is the midpoint of a concentration-inhibition curve. As usually defined, the Ki is a measure of affinity in units of concentration, obtained from inhibition or displacement.

The structures appear in SMILES notation.

Experiment [1] concerns the target T1, Shikimate kinase (Helicobacter pylori (strain ATCC 700392 / 26695) (Campylobacterpylori), UniProt P56073). The experiment can be described thus: Binding affinity to Helicobacter pylori SS1 recombinant shikimate kinase expressed in BL21 (DE3) cells by SPR assay. On the technique in general: Surface plasmon resonance follows binding to a sensor surface in real time, without labels.

For experiment [2], the target named is T1, Shikimate kinase. The experiment can be described thus: Inhibition of Helicobacter pylori SS1 recombinant shikimate kinase expressed in BL21 (DE3) cells by double coupled assay. The class given is cell-based.
Experiment [3] has as its target T1, Shikimate kinase. As to the kind of experiment: Inhibition of Helicobacter pylori SS1 recombinant shikimate kinase expressed in BL21 (DE3) cells in presence of varying MgATP levels by double coupled assay. The class given is cell-based.
Experiment [4] concerns the target T1, Shikimate kinase. The experiment can be described thus: Inhibition of Helicobacter pylori SS1 recombinant shikimate kinase expressed in BL21 (DE3) cells in presence of varying shikimate levels by double coupled assay. The class given is cell-based.

T1 sequence (P56073 whole entry): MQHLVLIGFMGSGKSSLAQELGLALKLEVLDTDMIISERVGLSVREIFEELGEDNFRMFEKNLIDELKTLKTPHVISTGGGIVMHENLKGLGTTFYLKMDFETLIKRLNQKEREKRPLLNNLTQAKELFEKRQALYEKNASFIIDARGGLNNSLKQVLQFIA

For the compound `COc1cc(C=O)ccc1OCc1ccccc1COc1ccc(/C=C2/SC(=S)NC2=O)cc1OC`, on Shikimate kinase [1], the Kd is 4.39 µM. Besides, the concentration for half-maximal inhibition (IC50) on Shikimate kinase [2] stood at 5.5 µM. Moreover, the values for the Ki on Shikimate kinase [2], on Shikimate kinase [3] and on Shikimate kinase [4] were 9.48 µM, 7.18 µM and 10.7 µM, respectively.
`O=C1NN(c2ccc(Cl)c(Cl)c2)C(=O)/C1=C\c1ccc(-c2ccc(Br)cc2C(=O)O)o1`: the Kd at Shikimate kinase [1] was determined as 3.74 µM. At Shikimate kinase [2], the IC50 turned out to be 6.4 µM. Moreover, the inhibitory constant (Ki) on Shikimate kinase [2] worked out at 2.19 µM; at Shikimate kinase [3] it was 7.92 µM.

Source of the values: ChEMBL document CHEMBL1144564, “Discovery of Helicobacter pylori shikimate kinase inhibitors: bioassay and molecular modeling” (Bioorg Med Chem, 2007).
